target: T1, B-Raf kinase (Homo sapiens, UniProt P15056); assay: Biochemical assay for B-Raf.1 (coupled pyruvate kinase/lactate dehydrogenase); conditions: read-out: BRAF.1 IC50
T1 construct: GST (N); purchased Sigma
Method in brief: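 NADH oxidation followed at 340 nm in a pyruvate kinase/lactate dehydrogenase-coupled assay with 0.13 nM B-Raf, 30.1 nM MEK substrate, 1 mM ATP, pH 7.5 Tris buffer, 1% DMSO. Monitored 6 h at 30 °C; rate taken from 4–5 h. IC50 from four-parameter sigmoidal fit.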

T1 sequence (P15056 416-766): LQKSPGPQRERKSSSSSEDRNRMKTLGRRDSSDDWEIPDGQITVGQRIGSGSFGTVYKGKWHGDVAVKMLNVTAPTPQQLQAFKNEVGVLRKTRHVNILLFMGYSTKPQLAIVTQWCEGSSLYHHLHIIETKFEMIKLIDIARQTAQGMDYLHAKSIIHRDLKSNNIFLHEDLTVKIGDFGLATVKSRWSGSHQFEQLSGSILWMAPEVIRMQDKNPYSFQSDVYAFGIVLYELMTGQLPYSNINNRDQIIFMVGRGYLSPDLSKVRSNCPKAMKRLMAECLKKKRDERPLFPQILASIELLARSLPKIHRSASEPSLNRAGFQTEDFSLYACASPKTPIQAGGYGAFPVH

Row | SMILES | IC50
1 | Cc1cc(F)c(NC(=O)NCCC(C)(C)C#N)cc1-c1cc(N2CCOCC2)nc(N2CCOCC2)c1 [Example 22] | 100 to 500 nM
2 | Cc1cc(F)c(NC(=O)NCCC2(C(F)(F)F)CC2)cc1-c1cc(N2CCOCC2)nc(N2CCOCC2)c1 [Example 23] | ≤ 100 nM
3 | CC(=O)Nc1cc(-c2cc(-c3cc(NC(=O)NCCC4(C)CC4)c(F)cc3C)cc(OCCO)n2)ccn1 [Example 33] | ≤ 100 nM
4 | Cc1cc(F)c(NC(=O)NCCC2(C)CC2)cc1-c1cc(OCC(C)(C)O)nc(-c2ccncc2)c1 [Example 34] | ≤ 100 nM
5 | Cc1cc(F)c(NC(=O)NCCC2(C)CC2)cc1-c1cccc(-c2ccnc(NC(=O)C3CC3)c2)c1 [Example 64] | ≤ 100 nM
6 | Cc1cc(F)c(NC(=O)NCCC2(C)CC2)cc1-c1cccc(-c2cc(NC(=O)C3CC3)ncn2)c1 [Example 65] | ≤ 100 nM
7 | Cc1cc(F)c(NC(=O)NCCC(C)(C)C#N)cc1-c1cccc(-c2ccnc(NC(=O)C3CC3)c2)c1 [Example 66] | ≤ 100 nM
8 | Cc1cc(F)c(NC(=O)NCCC(C)(C)C#N)cc1-c1cccc(-c2cc(NC(=O)C3CC3)ncn2)c1 [Example 67] | ≤ 100 nM
9 | Cc1ccc(NC(=O)N2CCC(C(F)(F)F)C2)cc1-c1cccc(-c2cc(NC(=O)C3CC3)ncn2)c1 (stereo not shown) [Example 73] | ≤ 100 nM
10 | Cc1ncc(NC(=O)NCCC(C)(C)F)cc1-c1ccnc(-c2ccnc(NC(=O)C3CC3)c2)c1 [Example 75] | ≤ 100 nM
11 | Cc1cc(F)c(NC(=O)NCCC2(C)CC2)cc1-c1cc(OCCO)nc(-c2ccnc(NC(=O)C3CC3)c2)c1 [Example 76] | ≤ 100 nM
12 | COC(=O)Nc1cc(-c2cc(-c3cc(NC(=O)NCCC4(C)CC4)c(F)cc3C)cc(OCCO)n2)ccn1 [Example 77] | ≤ 100 nM
13 | Cc1cc(F)c(NC(=O)NCCC2(C)CC2)cc1-c1ccnc(-c2ccnc3c2CC(=O)N3)c1 [Example 79] | ≤ 100 nM
14 | Cc1cc(F)c(NC(=O)NC2CC(C)(C)C2)cc1-c1cc(OCCO)nc(-c2ccnc(NC(=O)C3CC3)c2)c1 [Example 80] | ≤ 100 nM
15 | Cc1ncc(NC(=O)NCCC2(C)CC2)cc1-c1nccc(-c2ccnc(NC(=O)C3CC3)c2)n1 [Example 81] | ≤ 100 nM

tested on: H2405 cells; assay: H2405 cell proliferation assay (1), resazurin, 96-well; type: cell-based; conditions: Homo sapiens, NCI-H2405, inhibition of cell proliferation
Method in brief: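 This is a resazurin viability readout (excitation 540 nm, emission 600 nm) taken 5-6 h after adding 440 μM resazurin solution, giving IC50 values.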

Row | SMILES | IC50
16 | Cc1cc(F)c(NC(=O)NCCC(C)(C)C#N)cc1-c1cc(N2CCOCC2)nc(N2CCOCC2)c1 [Example 22] | 1000 to 10000 nM
17 | Cc1cc(F)c(NC(=O)NCCC2(C(F)(F)F)CC2)cc1-c1cc(N2CCOCC2)nc(N2CCOCC2)c1 [Example 23] | 100 to 500 nM
18 | CC(=O)Nc1cc(-c2cc(-c3cc(NC(=O)NCCC4(C)CC4)c(F)cc3C)cc(OCCO)n2)ccn1 [Example 33] | ≤ 100 nM
19 | Cc1cc(F)c(NC(=O)NCCC2(C)CC2)cc1-c1cc(OCC(C)(C)O)nc(-c2ccncc2)c1 [Example 34] | 100 to 500 nM
20 | Cc1cc(F)c(NC(=O)NCCC(C)(C)C#N)cc1-c1cccc(-c2ccnc(NC(=O)C3CC3)c2)c1 [Example 66] | 1000 to 10000 nM
21 | Cc1cc(F)c(NC(=O)NCCC(C)(C)C#N)cc1-c1cccc(-c2cc(NC(=O)C3CC3)ncn2)c1 [Example 67] | 100 to 500 nM
22 | Cc1ccc(NC(=O)N2CCC(C(F)(F)F)C2)cc1-c1cccc(-c2cc(NC(=O)C3CC3)ncn2)c1 (stereo not shown) [Example 73] | 100 to 500 nM
23 | Cc1ncc(NC(=O)NCCC(C)(C)F)cc1-c1ccnc(-c2ccnc(NC(=O)C3CC3)c2)c1 [Example 75] | 1000 to 10000 nM
24 | Cc1cc(F)c(NC(=O)NCCC2(C)CC2)cc1-c1cc(OCCO)nc(-c2ccnc(NC(=O)C3CC3)c2)c1 [Example 76] | ≤ 100 nM
25 | COC(=O)Nc1cc(-c2cc(-c3cc(NC(=O)NCCC4(C)CC4)c(F)cc3C)cc(OCCO)n2)ccn1 [Example 77] | 100 to 500 nM
26 | Cc1cc(F)c(NC(=O)NCCC2(C)CC2)cc1-c1ccnc(-c2ccnc3c2CC(=O)N3)c1 [Example 79] | 500 to 1000 nM
27 | Cc1cc(F)c(NC(=O)NC2CC(C)(C)C2)cc1-c1cc(OCCO)nc(-c2ccnc(NC(=O)C3CC3)c2)c1 [Example 80] | ≤ 100 nM
28 | Cc1ncc(NC(=O)NCCC2(C)CC2)cc1-c1nccc(-c2ccnc(NC(=O)C3CC3)c2)n1 [Example 81] | 100 to 500 nM

tested on: A375 cells; assay: A375 cell proliferation assay (1), resazurin, 96-well; type: cell-based; conditions: Homo sapiens, A-375, inhibition of cell proliferation
Method in brief: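 Viability was read by resazurin fluorescence at 540 nm excitation and 600 nm emission, using a 440 μM solution added for 5–6 h at the end of culture. IC50 came from the curve fit.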

Row | SMILES | IC50
29 | Cc1cc(F)c(NC(=O)NCCC(C)(C)C#N)cc1-c1cc(N2CCOCC2)nc(N2CCOCC2)c1 [Example 22] | 1000 to 10000 nM
30 | Cc1cc(F)c(NC(=O)NCCC2(C(F)(F)F)CC2)cc1-c1cc(N2CCOCC2)nc(N2CCOCC2)c1 [Example 23] | 500 to 1000 nM
31 | CC(=O)Nc1cc(-c2cc(-c3cc(NC(=O)NCCC4(C)CC4)c(F)cc3C)cc(OCCO)n2)ccn1 [Example 33] | ≤ 100 nM
32 | Cc1cc(F)c(NC(=O)NCCC2(C)CC2)cc1-c1cc(OCC(C)(C)O)nc(-c2ccncc2)c1 [Example 34] | 1000 to 10000 nM
33 | Cc1cc(F)c(NC(=O)NCCC2(C)CC2)cc1-c1cccc(-c2ccnc(NC(=O)C3CC3)c2)c1 [Example 64] | 1000 to 10000 nM
34 | Cc1cc(F)c(NC(=O)NCCC2(C)CC2)cc1-c1cccc(-c2cc(NC(=O)C3CC3)ncn2)c1 [Example 65] | 1000 to 10000 nM
35 | Cc1cc(F)c(NC(=O)NCCC(C)(C)C#N)cc1-c1cccc(-c2ccnc(NC(=O)C3CC3)c2)c1 [Example 66] | 1000 to 10000 nM
36 | Cc1cc(F)c(NC(=O)NCCC(C)(C)C#N)cc1-c1cccc(-c2cc(NC(=O)C3CC3)ncn2)c1 [Example 67] | 1000 to 10000 nM
37 | Cc1ccc(NC(=O)N2CCC(C(F)(F)F)C2)cc1-c1cccc(-c2cc(NC(=O)C3CC3)ncn2)c1 (stereo not shown) [Example 73] | 100 to 500 nM
38 | Cc1ncc(NC(=O)NCCC(C)(C)F)cc1-c1ccnc(-c2ccnc(NC(=O)C3CC3)c2)c1 [Example 75] | 1000 to 10000 nM
39 | Cc1cc(F)c(NC(=O)NCCC2(C)CC2)cc1-c1cc(OCCO)nc(-c2ccnc(NC(=O)C3CC3)c2)c1 [Example 76] | ≤ 100 nM
40 | COC(=O)Nc1cc(-c2cc(-c3cc(NC(=O)NCCC4(C)CC4)c(F)cc3C)cc(OCCO)n2)ccn1 [Example 77] | ≤ 100 nM
41 | Cc1cc(F)c(NC(=O)NCCC2(C)CC2)cc1-c1ccnc(-c2ccnc3c2CC(=O)N3)c1 [Example 79] | 1000 to 10000 nM
42 | Cc1cc(F)c(NC(=O)NC2CC(C)(C)C2)cc1-c1cc(OCCO)nc(-c2ccnc(NC(=O)C3CC3)c2)c1 [Example 80] | ≤ 100 nM
43 | Cc1ncc(NC(=O)NCCC2(C)CC2)cc1-c1nccc(-c2ccnc(NC(=O)C3CC3)c2)n1 [Example 81] | 1000 to 10000 nM

tested on: WM3928 cells; assay: WM3928 cell proliferation assay (1), resazurin, 96-well; type: cell-based; conditions: inhibition of cell proliferation
Experimental: WM3928 Cell Proliferation Assay (1)
WM3928 cells (#WM3928-01-0001) are obtained from Rockland Immunochemicals Inc (Gilbertsville, PA). Briefly, cells were grown in MCDB 153 medium (Sigma, #M7403, St. Louis, MO) supplemented with 20% Leibovitz's L-15 (ThermoFisher #11415-064, Waltham, MA), 2% heat inactivated fetal bovine serum (ThermoFisher, #A3840001, Waltham, MA), 5 μg/mL Insulin (Bovine Pancreas) (Sigma, #I0516, St. Louis, MO), 1.68 mM Calcium Chloride (Sigma, #C-34006, St. Louis, MO) and 1% Penicillin/Streptomycin/L-Glutamine (ThermoFisher #10378016, Waltham, MA) at 37° C., 5% CO2, and 95% humidity. Cells are expanded until reaching 70-95% confluency at which point they are subcultured or harvested for assay use. A serial dilution of test compound is dispensed into a 96-well black clear bottom plate in triplicate. Three thousand cells are added per well in 200 μL complete growth medium in the 96-well plate. Plates are incubated for 67-72 hours at 37° C., 5% CO2, and 95% humidity. At the end of the incubation, 40 μL of a 440 μM solution of resazurin (Sigma, #199303, St. Louis, MO) in PBS is added to each well of the plate and plates are incubated for an additional 6-7 hours at 37° C., 5% CO2, and 95% humidity. Plates are read on a Synergy2 or equivalent reader (Biotek, Winooski VT) using an excitation of 540 nm and an emission of 600 nm. Data is analyzed using Prism software (GraphPad, San Diego, CA) to calculate IC50 values.

Row | SMILES | IC50
44 | Cc1cc(F)c(NC(=O)NCCC(C)(C)C#N)cc1-c1cc(N2CCOCC2)nc(N2CCOCC2)c1 [Example 22] | 1000 to 10000 nM
45 | Cc1cc(F)c(NC(=O)NCCC2(C(F)(F)F)CC2)cc1-c1cc(N2CCOCC2)nc(N2CCOCC2)c1 [Example 23] | 100 to 500 nM
46 | CC(=O)Nc1cc(-c2cc(-c3cc(NC(=O)NCCC4(C)CC4)c(F)cc3C)cc(OCCO)n2)ccn1 [Example 33] | ≤ 100 nM
47 | Cc1cc(F)c(NC(=O)NCCC2(C)CC2)cc1-c1cc(OCC(C)(C)O)nc(-c2ccncc2)c1 [Example 34] | 100 to 500 nM
48 | Cc1cc(F)c(NC(=O)NCCC2(C)CC2)cc1-c1cccc(-c2ccnc(NC(=O)C3CC3)c2)c1 [Example 64] | 100 to 500 nM
49 | Cc1cc(F)c(NC(=O)NCCC2(C)CC2)cc1-c1cccc(-c2cc(NC(=O)C3CC3)ncn2)c1 [Example 65] | 100 to 500 nM
50 | Cc1cc(F)c(NC(=O)NCCC(C)(C)C#N)cc1-c1cccc(-c2ccnc(NC(=O)C3CC3)c2)c1 [Example 66] | 100 to 500 nM
51 | Cc1cc(F)c(NC(=O)NCCC(C)(C)C#N)cc1-c1cccc(-c2cc(NC(=O)C3CC3)ncn2)c1 [Example 67] | 1000 to 10000 nM
52 | Cc1ccc(NC(=O)N2CCC(C(F)(F)F)C2)cc1-c1cccc(-c2cc(NC(=O)C3CC3)ncn2)c1 (stereo not shown) [Example 73] | ≤ 100 nM
53 | Cc1ncc(NC(=O)NCCC(C)(C)F)cc1-c1ccnc(-c2ccnc(NC(=O)C3CC3)c2)c1 [Example 75] | 500 to 1000 nM
54 | Cc1cc(F)c(NC(=O)NCCC2(C)CC2)cc1-c1cc(OCCO)nc(-c2ccnc(NC(=O)C3CC3)c2)c1 [Example 76] | ≤ 100 nM
55 | COC(=O)Nc1cc(-c2cc(-c3cc(NC(=O)NCCC4(C)CC4)c(F)cc3C)cc(OCCO)n2)ccn1 [Example 77] | ≤ 100 nM
56 | Cc1cc(F)c(NC(=O)NCCC2(C)CC2)cc1-c1ccnc(-c2ccnc3c2CC(=O)N3)c1 [Example 79] | 100 to 500 nM
57 | Cc1cc(F)c(NC(=O)NC2CC(C)(C)C2)cc1-c1cc(OCCO)nc(-c2ccnc(NC(=O)C3CC3)c2)c1 [Example 80] | ≤ 100 nM
58 | Cc1ncc(NC(=O)NCCC2(C)CC2)cc1-c1nccc(-c2ccnc(NC(=O)C3CC3)c2)n1 [Example 81] | 500 to 1000 nM

Source: patent US20230357179A1, “RAF KINASE INHIBITORS AND METHODS OF USE THEREOF” (Deciphera Pharmaceuticals, LLC, priority 2021, published 2023)
